Measured values published in patent publication US6737425B1, “N,N-substituted cyclic amine derivatives” (Eisai Co., Ltd., priority 1998, dated 2004).
Several values for one entry are separate records, joined by “and”; a condition that tells them apart may be missing. Identical values can stand only once.

Legend:
mice in a formalin test = assay: Antalgic effect (I) on mice in a formalin test; type: in vivo; conditions: for average left hind leg-licking time, Mean: formalin 5 minutes later, measured for 5 minutes
Method: Antalgic Effect (I) on Mice in a Formalin Test
The antalgic action of the typical example of the compound of the present invention (Example 1) when intravenously administered was examined in the formalin test using mice (3).
ddy Mice (male, 4-week-old) purchased from Nippon SLC Ltd. were used in the experiment.
20.4 mg of the test compound was weighed, and 10.2 ml of 5.28% mannitol was added thereto to prepare 2 mg/ml (20 mg/kg) solution. Then, 3.8 ml of 5.28% mannitol was added to 3.8 ml of the 2 mg/ml solution to prepare 1 mg/ml (10 mg/kg) solution. Finally, 2.5 ml of 5.28% mannitol was added to 2.5 ml of the 1 mg/ml solution to prepare 0.5 mg/ml (5 mg/kg) solution. This test compound was weighed and prepared on the day when the experiment was conducted.
30 μl of commercial 35.0 to 38.0% formaldehyde was added to 970 μl physiological saline. The resulting solution was used as 3% formalin. Because the indicated purity of this commercial formaldehyde is 35.0 to 38.0%, the 3% formalin presently prepared and used is accurately 2.84 to 3.08% formalin.
The treatment group in this test consisted of 4 groups in total, that is, a control group, a 5 mg/kg test compound administration group, a 10 mg/kg administration group, and a 20 mg/kg administration group, and each group consisted of 5 animals.
The control group was given 0.1 ml of 5.28% mannitol per 10 g of the body weight. The test compound was administered at each concentration (0.5 mg/ml, 1 mg/ml, and 2 mg/ml) in an volume of 0.1 ml per 10 g of the body weight into the 5 mg/kg group, 10 mg/kg group and 20 mg/kg group, respectively.
5.28% mannitol was administered via the tail vein into each group given the compound of the present invention or into the control group, and the animals were placed in a transparent plastic observation cage. 5 minutes later, 20 μl of 3% formalin was subcutaneously administered into the bottom of the left hind leg of each mouse. The duration of the behavior of mouse's licking the left hind leg after administration of formalin was measured for 5 minutes and used as an indication of pain. The duration was expressed in second.
In the significant test, parametric one-way layout analysis of variance was conducted and then Dunnet-type multiple comparison was made (*: 0.01<p<0.05, **: p<0.01, vs. the control group). For the test, a statistical analysis assistant system with SAS 6.12 (SAS Institute Japan Ltd., Tokyo) integrated in it was used.

[1] = tested on: rat model with occlusion in the middle cerebral artery; assay: Effect (II) of reducing infarct volume in a rat model with occlusion in the middle cerebral artery (permanent occlusion); type: in vivo; conditions: for Infarct volume in the cerebral cortex, Mean: from two hours after occlusion, 6 hours, 24 hours after occlusion
Method: Effect (II) of Reducing Infarct volume in a Rat Model with Occlusion in the Middle Cerebral Artery
The typical example of the compound of the present invention (the compound in Example 1) was compared with compounds disclosed in JP 8-508037-A (WO 94/25469, U.S. Pat. No. 5,750,525), which have affinity for AMPA receptors and is effective against cellular necrosis after ischemia in anoxia and hypocalcemia.
The compound of the present invention was dissolved in physiological saline to be adjusted to a dosage of 10 or 20 mg/kg/h just before use.
The control compound was dissolved in physiological saline to be adjusted to a dosage of 3 mg/kg/h just before use.
Occlusion in the middle cerebral artery was conducted according to the method described above. However, the middle cerebral artery was permanently occluded without removing the nylon embolus.
Two hours after the middle cerebral artery was occluded, a syringe containing the medium or the sample (10 or 20 mg/kg/h) was attached to a catheter for intravenous administration, and half (0.31 ml) of the dosage to be infused for 1 hour was intravenously administered for 1 minute. Thereafter, the medium or the sample was administered continuously for 6 hours at a rate of 0.616 ml/h by the use of a syringe pump for infusion. During administration and for 2 hours after administration was finished, the temperature of the rectum was maintained in the range of 37.0 to 38.5° C. in a system for controlling body temperature. After the body temperature control was finished, the animal was returned to a cage and maintained for 1 day in a breeding room.
Two hours after the middle cerebral artery was occluded, a syringe containing the medium or the sample (3 mg/kg/h) was attached to a catheter for intravenous administration, and the medium or the sample was administered continuously for 6 hours at a rate of 0.616 ml/h by means of the syringe pump for infusion. During administration and for 2 hours after administration was finished, the temperature of the rectum was maintained in the range of 37.0 to 38.5° C. in the system for controlling body temperature. After the body temperature control was finished, the animal was returned to a cage and maintained for 1 day in a breeding room.
The middle cerebral artery was permanently occluded by the nylon embolus, and the infarct volume was measured 24 hours after the occlusion was conducted.

[2] = tested on: voltage-dependent calcium channels (cerebral cortex synaptosome); assay: Measurement of voltage-dependent calcium channel activity by the use of a fluorescent pigment (fura 2); type: cell-based; conditions: rat cerebral cortex synaptosome, fura 2, KCl stimulation, compound incubated 10 minutes
Summary of the method: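 Synaptosomes were prepared from rat cerebral cortex by sucrose homogenisation and 0.8 M sucrose gradient centrifugation. They were loaded with fura-2/AM by mixing with an equal volume of 4 μM loading solution for 40 min at room temperature. Verapamil hydrochloride served as the reference compound.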

Structure (SMILES): CC(C)C(C#N)(CCCN1CCN(CCOc2ccc(F)cc2)CC1)c1ccccc1 (stereo not drawn) [Example 1, 1-[(4-Cyano-5-methyl-4-phenyl)hexyl]-4-[2-(4-fluorophenoxy)ethyl]piperazine]
- average left hind leg-licking time, Mean (mice in a formalin test; 5 mg/kg i.v. (tail vein)): 49.4 s
- licking time compared to the control group (mice in a formalin test; 5 mg/kg, 10 mg/kg and 20 mg/kg i.v.): statistically significant reduction in licking time
- average left hind leg-licking time, Mean (mice in a formalin test; 10 mg/kg i.v. (tail vein)): 23.6 s
- average left hind leg-licking time, Mean (mice in a formalin test; 20 mg/kg i.v. (tail vein)): 2.2 s
- degree of reduction of the infarct volume ([1]; 10 mg/kg/h i.v.): 15%
- Infarct volume in the cerebral cortex, Mean ([1]; 10 mg/kg/h i.v. (table: 10 mg/kg)): 260.7±13.1 mm^3 and 260.7 mm^3
- degree of reduction of the infarct volume ([1]; 20 mg/kg/h i.v.): 30%
- Infarct volume in the cerebral cortex, Mean ([1]; 20 mg/kg/h i.v. (table: 20 mg/kg)): 215.4±21.3 mm^3 and 215.4 mm^3
- IC50 [2]: 5.9 µM
